Literature values in patent publication US20240408179A1, “ORAL DELIVERY OF THERAPEUTIC AGENTS” (GUANGZHOU DAZHOU BIOMEDICINE LTD., priority 2021, published 2024).

How the values were obtained:
[1] = test system: T2D patients with high risk of cardiovascular disease events; details: empagliflozin group versus placebo group
[2] = humans, co-formulated with SNAC

| Molecule | relative risk reduction in death from cardiovascular causes [1] [%] | oral bioavailability (BA %) [2] |
| --- | --- | --- |
| OC[C@H]1O[C@@H](c2ccc(Cl)c(Cc3ccc(O[C@H]4CCOC4)cc3)c2)[C@H](O)[C@@H](O)[C@@H]1O [empagliflozin] | 38 |  |
| semaglutide |  | 0.5-1% |
